According to ChEMBL document CHEMBL5046232, “Affinity-based protein profiling identifies vitamin D3 as a heat shock protein 70 antagonist that regulates hedgehog transduction in murine basal cell carcinoma” (Eur J Med Chem, 2022):
The source made the active and inactive calls. The calls are words filed in the database; no cut-off is given here.

Assays:
ASZ001 [1] = assay: Inhibition of hedgehog signalling in mouse ASZ001 cells assessed as upregulation of VDR expression in by immunoblot analysis; assay type: cell-based
MEF [2] = assay: Inhibition of hedgehog signalling in mouse Sufu-KO MEF cells assessed as upregulation of VDR expression at 10 uM in by immunoblot analysis; assay type: cell-based
[3] = target: T1, Vitamin D3 receptor (Mus musculus) (UniProt P48281); assay: Activation of VDR in mouse C3H 10T1/2 cells assessed as upregulation of Cyp24A1 mRNA expression at 2.5 uM measured after 48 hrs by RT-PCR analysis relative to control; assay type: cell-based; conditions: filed as activator
T1 sequence (whole entry): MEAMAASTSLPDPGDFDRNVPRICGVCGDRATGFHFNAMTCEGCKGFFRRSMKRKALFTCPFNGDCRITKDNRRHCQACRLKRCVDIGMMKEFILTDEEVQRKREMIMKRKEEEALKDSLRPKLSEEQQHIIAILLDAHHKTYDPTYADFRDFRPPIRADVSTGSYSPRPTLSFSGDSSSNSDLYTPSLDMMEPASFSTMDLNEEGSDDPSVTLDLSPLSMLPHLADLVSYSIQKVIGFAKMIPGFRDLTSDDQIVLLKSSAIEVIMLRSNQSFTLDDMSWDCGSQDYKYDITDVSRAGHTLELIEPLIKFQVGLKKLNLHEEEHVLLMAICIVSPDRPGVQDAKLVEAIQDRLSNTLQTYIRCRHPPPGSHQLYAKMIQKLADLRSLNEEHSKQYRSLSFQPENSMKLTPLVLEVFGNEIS

[4] = Binding affinity to recombinant human HSP70 assessed as dissociation constant incubated for 1 hrs […]
[5] = Inhibition of hedgehog signalling in mouse C3H 10T1/2 cells assessed as reduction in Gli1 mRNA expression measured after 48 hrs by RT-PCR analysis; assay type: cell-based; conditions: C3H 10T1/2, 48 h
[6] = Inhibition of hedgehog signalling in mouse ASZ001 cells assessed as reduction in Gli1 mRNA expression measured after 48 hrs by RT-PCR analysis; assay type: cell-based; conditions: ASZ001, 48 h
[7] = Inhibition of hedgehog signalling in mouse VDR-KO MEF cells assessed as reduction in Gli1 mRNA expression measured after 48 hrs by RT-PCR analysis; assay type: cell-based
Mus musculus = species: Mus musculus; assay: Selectivity index, ratio of IC50 for Inhibition of hedgehog signalling in mouse VDR-KO MEF cells to IC50 for inhibition of hedgehog signalling in mouse ASZ001 cells; assay type: cell-based
[8] = target: T1, Vitamin D3 receptor (Mus musculus); assay: Activation of VDR in mouse ASZ001 cells assessed as upregulation of Cyp24A1 mRNA expression at 2.5 uM measured after 48 hrs by RT-PCR analysis relative to control; assay type: cell-based; conditions: filed as activator
[9] = Inhibition of hedgehog signalling in mouse Ptch-KO MEF cells assessed as reduction in Gli1 mRNA expression measured after 48 hrs by RT-PCR analysis; assay type: cell-based
[10] = Inhibition of hedgehog signalling in mouse Sufu-KO MEF cells assessed as reduction in Gli1 mRNA expression measured after 48 hrs by RT-PCR analysis; assay type: cell-based
[11] = target: T1, Vitamin D3 receptor (Mus musculus); assay: Activation of VDR in mouse ASZ001 cells assessed as upregulation of Cyp24A1 mRNA expression at 5 uM measured after 48 hrs by RT-PCR analysis relative to control; assay type: cell-based
[12] = target: T1, Vitamin D3 receptor (Mus musculus); assay: Activation of VDR in mouse C3H 10T1/2 cells assessed as upregulation of Cyp24A1 mRNA expression at 5 uM measured after 48 hrs by RT-PCR analysis relative to control; assay type: cell-based
C3H 10T1/2 = assay: Antiproliferative activity against mouse C3H 10T1/2 assessed as reduction in cell proliferation incubated for 72 hrs by MTS assay; assay type: functional, cell-based
ASZ001 [13] = assay: Antiproliferative activity against mouse ASZ001 assessed as reduction in cell proliferation incubated for 72 hrs by MTS assay; assay type: functional, cell-based
MEF [14] = assay: Inhibition of hedgehog signalling in mouse Sufu-KO MEF cells assessed as upregulation of Cyp27A1 expression by immunoblot analysis; assay type: cell-based
ASZ001 [15] = assay: Inhibition of hedgehog signalling in mouse ASZ001 cells assessed as downregulation of VDR expression in by immunoblot analysis; assay type: cell-based
ASZ001 [16] = assay: Inhibition of hedgehog signalling in mouse ASZ001 cells assessed as upregulation of Cyp27B1 expression by immunoblot analysis; assay type: cell-based
MEF [17] = assay: Inhibition of hedgehog signalling in mouse Sufu-KO MEF cells assessed as upregulation of VDR expression at >15 uM in by immunoblot analysis; assay type: cell-based; conditions: dose microM >15
ASZ001 [18] = assay: Inhibition of hedgehog signalling in mouse ASZ001 cells assessed as upregulation of Cyp27A1 expression by immunoblot analysis; assay type: cell-based
MEF [19] = assay: Inhibition of hedgehog signalling in mouse Sufu-KO MEF cells assessed as upregulation of Cyp27B1 expression by immunoblot analysis; assay type: cell-based
Homo sapiens [20] = species: Homo sapiens; assay: Competitive binding affinity to recombinant human HSP70 at 200 uM incubated for 1 hrs in presence of Vitamin D3 by Western blotting based pull-down assay
Homo sapiens [21] = species: Homo sapiens; assay: Binding affinity to recombinant human HSP70 at 200 uM incubated for 1 hrs in presence of calcidiol by Western blotting based pull-down assay
Homo sapiens [22] = species: Homo sapiens; assay: Binding affinity to recombinant human HSP70 at 200 uM incubated for 1 hrs in presence of Calcitriol by Western blotting based pull-down assay; conditions: filed as antagonist
Homo sapiens [23] = species: Homo sapiens; assay: Binding affinity to recombinant human HSP70 incubated for 1 hrs by Western blotting based pull-down assay; conditions: filed as antagonist
ASZ001 [24] = assay: Inhibition of hedgehog signalling in mouse ASZ001 cells assessed as reduction in Gli1 mRNA expression at 10 uM for 20 hrs by […]; assay type: cell-based

Compound	Kd [4]	IC50 [5]	IC50 [6]	Activity [11]	Activity ([11]; filed as activator)	Activity ([12]; filed as activator)	other results
C=C1/C(=C\C=C2/CCC[C@]3(C)[C@@H]([C@H](C)CCCC(C)(C)O)CC[C@@H]23)C[C@@H](O)C[C@@H]1O	–	–	–	–	–	–	Activity (ASZ001 [1]): Active; Activity (MEF [2]): Active
C=C1CC[C@H](O)C/C1=C/C=C1\CCC[C@]2(C)[C@@H]([C@H](C)CCCC(C)(C)O)CC[C@@H]12 [CALCIFEDIOL ANHYDROUS]	6500 nM	480 nM	400 nM	–	–	–	Activity [3]: > 500%; IC50 [7]: 4400 nM; Ratio IC50 (Mus musculus): 11; Activity [8]: > 500%
CCn1c(=O)/c(=C2\Sc3ccccc3N2C)s/c1=C\c1cccc[n+]1CC.[Cl-]	–	5600 nM	1800 nM	–	–	–	IC50 [9]: 9500 nM; IC50 ([10]; mef): Not Active
C#CCO[C@H](CCC(C)C)[C@@H](C)[C@H]1CC[C@H]2/C(=C/C=C3/C[C@@H](O)CCC3=C)CCC[C@]12C	–	1100 nM	430 nM	9%	–	–	Activity [12]: < 1%
C=C1CC[C@H](O)C/C1=C/C=C1\CCC[C@]2(C)[C@@H]([C@H](C)[C@@H](O)CCC(C)C)CC[C@@H]12	11500 nM	1300 nM	380 nM	–	105%	261%	–
C=C1CC[C@H](O)C/C1=C/C=C1\CCC[C@]2(C)[C@@H]([C@H](C)[C@H](CCC(C)(C)O)OCc3cn(CCOCCOCCOCCNC(=O)CCCC[C@H]4SC[C@H]5NC(=O)N[C@H]54)nn3)CC[C@@H]12	–	7200 nM	3400 nM	< 1%	–	–	Activity (C3H 10T1/2): Active; Activity (ASZ001 [13]): Active; Activity [12]: < 1%
C#CCO[C@H](CCC(C)(C)O)[C@@H](C)[C@H]1CC[C@H]2/C(=C/C=C3/C[C@@H](O)CCC3=C)CCC[C@]12C	–	–	13800 nM	< 1%	–	–	–
C=C1CC[C@H](O)C/C1=C/C=C1\CCC[C@]2(C)[C@@H]([C@H](C)CCCC(C)C)CC[C@@H]12 [CHOLECALCIFEROL]	1400 nM	4100 nM	2100 nM	–	100%	100%	Activity (MEF [14]): Dose-Dependent Effect; IC50 [9]: 5800 nM; Activity (ASZ001 [15]): inactive; Activity (ASZ001 [16]): inactive; inhibition (MEF [17]): Active; Ratio IC50 (Mus musculus): 2; Activity (ASZ001 [18]): inactive; IC50 ([10]; Mus musculus, MEF, 48 h, read-out: IC50): 13600 nM; Activity (MEF [19]): Dose-Dependent Effect
C=C1CC[C@H](O)C/C1=C/C=C1\CCC[C@]2(C)[C@@H]([C@H](C)[C@H](O)CCC(C)(C)O)CC[C@@H]12	40300 nM	790 nM	710 nM	–	122%	527%	–
C=C1CC[C@H](O)C/C1=C/C=C1\CCC[C@]2(C)[C@@H]([C@H](C)[C@@H](CCC(C)(C)O)OCc3cn(CCOCCOCCOCCNC(=O)CCCC[C@H]4SC[C@H]5NC(=O)N[C@H]54)nn3)CC[C@@H]12	–	1900 nM	1100 nM	< 1%	–	–	Activity (Homo sapiens [20]): inactive; Activity (Homo sapiens [21]): inactive; Activity (Homo sapiens [22]): Active; Activity (Homo sapiens [23]): Dose-Dependent Effect; Activity (C3H 10T1/2): Active; Activity (ASZ001 [24]): Active; Activity (ASZ001 [13]): Active; Activity [12]: < 1%
COc1ccc(-c2nc(-c3cc(C(F)(F)F)cc(C(F)(F)F)c3)n(Cc3ccc(C(N)=O)cc3)c2-c2ccc(OC)cc2)cc1	840 nM	970 nM	580 nM	–	–	–	IC50 [9]: 1700 nM; IC50 ([10]; mef): Not Active
C=C1CC[C@H](O)C/C1=C/C=C1\CCC[C@]2(C)[C@@H]([C@H](C)[C@@H](O)CCC(C)(C)O)CC[C@@H]12	> 50000 nM	1200 nM	1700 nM	–	130%	540%	–
C=C1CC[C@H](O)C/C1=C/C=C1\CCC[C@]2(C)[C@@H]([C@H](C)[C@H](O)CCC(C)C)CC[C@@H]12	4300 nM	1200 nM	420 nM	–	103%	214%	–
C#CCO[C@@H](CCC(C)C)[C@@H](C)[C@H]1CC[C@H]2/C(=C/C=C3/C[C@@H](O)CCC3=C)CCC[C@]12C	–	2600 nM	260 nM	< 1%	–	–	Activity [12]: < 1%
